The nature of the series: Cholesterol solubility in solvents at saturation (dry residue weighed). In kind it is physicochemical. Conditions: 50° C. On the procedure: 3 solvent compared: Ethanol , Isopropanol, Heptane
Cholesterol was progressively added to each solvent at 50° C. up to saturation of the solution
Once saturation is achieved, a sample of the solution is taken and the solvent is evaporated with a rotary evaporator and/or in an oven. Dry residue of cholesterol is weighed to determine the solubility value

SMILES strings stand for the structures.

Turning to `CC(C)CCC[C@@H](C)[C@H]1CC[C@H]2[C@@H]3CC=C4C[C@@H](O)CC[C@]4(C)[C@H]3CC[C@]12C` [cholesterol, (3β)-cholest-5-en-3-ol], for the setting “ethanol”, the “cholesterol solubility in ethanol” value worked out at 6.7%. For the same molecule, the “cholesterol solubility in heptane” value (heptane) is 4.3%. In addition, under “isopropanol”, the “cholesterol solubility in isopropanol” value came out at 12.1%.

The values are drawn from US20180303940A1, “LIPOSOME PRODUCTION USING ISOPROPANOL” (GLAXOSMITHKLINE BIOLOGICALS, S.A., priority 2011, published 2018).
